According to patent publication US9309213B2, “C-3 substituted bicyclooctane based HIV protease inhibitors” (Purdue Research Foundation, priority 2011, dated 2016):
“And” between values parts separate entries of the source, which are not always exact repeats. Identical values can stand only once. Like-named read-outs stand apart in the source and are kept apart here.

Tests used:
HIV-1 protease = target: T1, HIV-1 protease (Human immunodeficiency virus type 1 group M subtype B, UniProt P04585); assay: HIV-1 protease enzyme inhibitory assay (protocol of Toth and Marshall); type: biochemical
T1 construct: The HIV aspartic protease plays a central role in the life cycle of the virus; It cleaves the virally encoded polyprotein
Excerpt: Inhibitors were designed to make additional interactions in the S2-subsite of the protease, especially with the Gly48 backbone atoms in the flap region of the enzyme. All inhibitors in Table 1 were first evaluated in the enzyme inhibitory assay developed by Toth and Marshall (Toth and Marshall, Int. J. Pept. Protein Res. 1990, 36, 544-550). […] The 3-(S)-hydroxy Cp-THF ligand was also investigated in combination with other sulfonamide substituents.
All inhibitors were first tested for their enzyme inhibitory potency using the assay protocol developed by Toth and Marshall.

HIV-1LAI = assay: In vitro antiviral assay, MT-2 cells exposed to HIV-1LAI, MTT assay; type: cell-based; details: for loss of antiviral activity (higher IC50) compared to 22: relative to inhibitor 22
HIV-1MDR/B = assay: microbe, parasite or virus in culture; type: cell-based; details: for IC50: Human immunodeficiency virus 1, read-out: IC50 ± SDs
HIV-1MDR/TM = assay: microbe, parasite or virus in culture; type: cell-based; details: for IC50: Human immunodeficiency virus 1, read-out: IC50 ± SDs
HIV-1MDR/C = assay: microbe, parasite or virus in culture; type: cell-based; details: for IC50: Human immunodeficiency virus 1, read-out: IC50 ± SDs
[1] = tested on: HIV-1ERS104pre (wild type); assay: Antiviral assay in PHA-PBMs, inhibition of p24 Gag protein production, wild-type isolate; type: cell-based
HIV-1MDR/G = assay: microbe, parasite or virus in culture; type: cell-based; details: for IC50: Human immunodeficiency virus 1, read-out: IC50 ± SDs
[2] = Human immunodeficiency virus 1, MT2, read-out: ID50, Table 2, antiviral activity
[3] = Human immunodeficiency virus 1, MT2, Table 1, MT-2 cells, 100 TCID50s of HIV-1LAI, MTT assay, means of at least two experiments
[4] = Human immunodeficiency virus 1, MT2, read-out: antiviral IC50
[5] = read-out: Ki / enzyme inhibitory potency

CON[C@@H]1CO[C@@H]2C[C@H](OC(=O)N[C@@H](Cc3ccccc3)[C@H](O)CN(CC(C)C)S(=O)(=O)c3ccc(OC)cc3)C[C@H]12
Ki (HIV-1 protease; Table 2, read-out: Ki): 0.088 nM
IC50 (HIV-1LAI; [2]): 81.5 nM

COc1ccc(S(=O)(=O)N(CC(C)C)C[C@@H](O)[C@H](Cc2ccccc2)NC(=O)O[C@@H]2C[C@@H]3[C@H](N(C)C)CO[C@@H]3C2)cc1
Ki (HIV-1 protease; Table 2, read-out: Ki): 12.7 nM

COc1ccc(S(=O)(=O)N(CC(C)C)C[C@@H](O)[C@H](Cc2ccccc2)NC(=O)O[C@@H]2C[C@H]3[C@@H](C2)OC[C@H]3OC(=O)N(C)C)cc1
Ki (HIV-1 protease; Table 2, read-out: Ki): 0.02 nM
IC50 (HIV-1LAI; [2]): 4.7 nM

CC(C)CN(C[C@@H](O)[C@H](Cc1ccccc1)NC(=O)O[C@H]1CCOC1)S(=O)(=O)c1ccc(N)cc1 [APV, amprenavir, reference compound]
IC50 (HIV-1MDR/B): 930 ± 280 nM
fold change of IC50 (HIV-1MDR/B; Table 3, HIV-1MDR/B compared to wild-type HIV-1ERS104pre): 31
IC50 (HIV-1MDR/TM): 190 ± 60 nM
fold change of IC50 (HIV-1MDR/TM; Table 3, HIV-1MDR/TM compared to wild-type HIV-1ERS104pre): 6
IC50 (HIV-1MDR/C): 260 ± 30 nM
fold change of IC50 (HIV-1MDR/C; Table 3, HIV-1MDR/C compared to wild-type HIV-1ERS104pre): 9
IC50 ([1]; Human immunodeficiency virus 1, Table 3, HIV-1ERS104pre (wild type), PHA-PBMs, p24 Gag, read-out: IC50 ± SDs): 30 ± 6 nM
IC50 (HIV-1MDR/G): 380 ± 30 nM
fold change of IC50 (HIV-1MDR/G; Table 3, HIV-1MDR/G compared to wild-type HIV-1ERS104pre): 12

COc1ccc(S(=O)(=O)N(CC(C)C)C[C@@H](O)[C@H](Cc2ccccc2)NC(=O)O[C@@H]2C[C@@H]3C(=O)CO[C@@H]3C2)cc1 [Inhibitor 19a, (3aS,5R,6aR)-3-oxohexahydro-2H-cyclopenta[b]furan-5-yl (2S,3R)-3-hydroxy-4-(N-isobutyl-4-methoxyphenylsulfonamido)-1-phenylbutan-2-ylcarbamate]
Ki (HIV-1 protease; Table 1, read-out: Ki): 0.95 nM
IC50 (HIV-1LAI; Human immunodeficiency virus 1, MT2, Table 1, MT-2 cells, 100 TCID50s of HIV-1LAI, MTT assay, means of at least two experiments, read-out: IC50): 14 nM

COc1ccc(S(=O)(=O)N(CC(C)C)C[C@@H](O)[C@H](Cc2ccccc2)NC(=O)O[C@@H]2C[C@@H]3[C@H](OC)CO[C@@H]3C2)cc1 [Inhibitor 19b, (3S,3aS,5R,6aR)-3-Methoxyhexahydro-2H-cyclopenta[b]furan-5-yl [(2S,3R)-3-Hydroxy-4-(N-iso-butyl-4-methoxyphenylsulfonamido)-1-phenylbutan-2-yl]carbamate]
Ki (HIV-1 protease; Table 1, read-out: Ki): 0.39 nM
Ki (HIV-1 protease; read-out: Ki): 0.95 nM
IC50 (HIV-1LAI; [3]): 37 nM
IC50 (HIV-1LAI; [4]): 37 nM
loss of antiviral activity (higher IC50) compared to 22 (HIV-1LAI): ~5 fold and ~7 fold

COc1ccc(S(=O)(=O)N(CC(C)C)C[C@@H](O)[C@H](Cc2ccccc2)NC(=O)O[C@@H]2C[C@@H]3[C@H](C)CO[C@@H]3C2)cc1 [Inhibitor 19e, (3S,3aR,5R,6aR)-3-Methylhexahydro-2H-cyclopenta[b]furan-5-yl [(2S,3R)-3-Hydroxy-4-(N-iso-butyl-4-methoxyphenylsulfonamido)-1-phenylbutan-2-yl]carbamate]
Ki (HIV-1 protease; Table 1, read-out: Ki): 0.02 nM and 0.16 nM
IC50 (HIV-1LAI; [3]): 25 nM
loss of antiviral activity (higher IC50) compared to 22 (HIV-1LAI): 5 fold

COc1ccc(S(=O)(=O)N(CC(C)C)C[C@@H](O)[C@H](Cc2ccccc2)NC(=O)O[C@@H]2C[C@@H]3[C@@H](C)CO[C@@H]3C2)cc1 [Inhibitor 19f, (3R,3aR,5R,6aR)-3-Methylhexahydro-2H-cyclopenta[b]furan-5-yl [(2S,3R)-3-Hydroxy-4-(N-isobutyl-4-methoxyphenylsulfonamido)-1-phenylbutan-2-yl]carbamate]
Ki (HIV-1 protease; Table 1, read-out: Ki): 0.017 nM

COc1ccc(S(=O)(=O)N(CC(C)C)C[C@@H](O)[C@H](Cc2ccccc2)NC(=O)O[C@@H]2C[C@@H]3[C@H](NC(C)=O)CO[C@@H]3C2)cc1 [Inhibitor 19g, (3S,3aR,5R,6aR)-3-acetamidohexahydro-2H-cyclopenta[b]furan-5-yl (2S,3R)-3-hydroxy-4-(N-isobutyl-4-methoxyphenylsulfonamido)-1-phenylbutan-2-yl-carbamate]
Ki (HIV-1 protease; [5]): 0.007 nM
IC50 (HIV-1LAI; [2]): 21.5 nM
IC50 (HIV-1LAI; [4]): 25 nM

COc1ccc(S(=O)(=O)N(CC(C)C)C[C@@H](O)[C@H](Cc2ccccc2)NC(=O)O[C@@H]2C[C@@H]3[C@@H](NC(C)=O)CO[C@@H]3C2)cc1 [Inhibitor 19h, (3′R,3′aR,5′R,6′aR)-3-acetamidohexahydro-2H-cyclopenta[b]furan-5-yl (2S,3R)-3-hydroxy-4-(N-isobutyl-4-methoxyphenylsulfonamido)-1-phenylbutan-2-yl-carbamate]
Ki (HIV-1 protease; Table 2, read-out: Ki): 0.0075 nM
Ki (HIV-1 protease; [5]): 0.007 nM
IC50 (HIV-1LAI; [2]): 31 nM
IC50 (HIV-1LAI; [4]): 31 nM

COc1ccc(S(=O)(=O)N(CC(C)C)C[C@@H](O)[C@H](Cc2ccccc2)NC(=O)O[C@@H]2C[C@@H]3[C@H](NS(C)(=O)=O)CO[C@@H]3C2)cc1 [Inhibitor 19i, (3S,3aR,5R,6aR)-3-(methylsulfonamido)hexahydro-2H-cyclopenta[b]furan-5-yl ((2S,3R)-3-hydroxy-4-(N-isobutyl-4-methoxyphenylsulfonamido)-1-phenylbutan-2-yl)-carbamate]
Ki (HIV-1 protease; Table 2, read-out: Ki): 0.017 nM and 0.032 nM
IC50 (HIV-1LAI; [2]): 28 nM

COc1ccc(S(=O)(=O)N(CC(C)C)C[C@@H](O)[C@H](Cc2ccccc2)NC(=O)O[C@@H]2C[C@@H]3[C@@H](NS(C)(=O)=O)CO[C@@H]3C2)cc1 [Inhibitor 19j, (3R,3aR,5R,6aR)-3-(methylsulfonamido)hexahydro-2H-cyclopenta[b]furan-5-yl ((2S,3R)-3-hydroxy-4-(N-isobutyl-4-methoxyphenylsulfonamido)-1-phenylbutan-2-yl) carbamate]
Ki (HIV-1 protease; Table 2, read-out: Ki): 0.18 nM
IC50 (HIV-1LAI; [2]): 50 nM

COc1ccc(S(=O)(=O)N(CC(C)C)C[C@@H](O)[C@H](Cc2ccccc2)NC(=O)O[C@@H]2C[C@@H]3[C@H](O)CO[C@@H]3C2)cc1 [Inhibitor 22, (3S,3aR,5R,6aR)-3-hydroxyhexahydro-2H-cyclopenta[b]furan-5-yl (2S,3R)-3-hydroxy-4-(4-(methoxy)-N-isobutylphenylsulfonamido)-1-phenylbutan-2-ylcarbamate]
IC50 (HIV-1MDR/B): > 1000 nM
IC50 (HIV-1MDR/TM): 41 ± 4 nM
IC50 (HIV-1LAI; [3]): 5 nM
IC50 (HIV-1LAI; [4]): 5 nM
IC50 (HIV-1LAI; Table 1, MT-2 cells, 100 TCID50s of HIV-1LAI, MTT assay, means of at least two experiments): 7 nM
IC50 (HIV-1MDR/C): > 1000 nM
IC50 ([1]; Human immunodeficiency virus 1): 20 nM
IC50 ([1]; Human immunodeficiency virus 1, read-out: IC50 ± SDs): 20 ± 4 nM
IC50 (HIV-1MDR/G): 270 ± 20 nM

CC(C)CN(C[C@@H](O)[C@H](Cc1ccccc1)NC(=O)O[C@@H]1C[C@@H]2[C@H](O)CO[C@@H]2C1)S(=O)(=O)c1ccc(CO)cc1 [Inhibitor 23, (3S,3aR,5R,6aR)-3-Hydroxyhexahydro-2H-cyclopenta[b]furan-5-yl {(2S,3R)-3-Hydroxy-4-[4-(hydroxymethyl)-N-iso-butylphenylsulfonamido]-1-phenylbutan-2-yl}carbamate]
Ki (HIV-1 protease; Table 1, read-out: Ki): 0.06 nM
IC50 (HIV-1LAI; [3]): 19 nM
loss of antiviral activity (higher IC50) compared to 22 (HIV-1LAI): 4 fold

CC(C)CN(C[C@@H](O)[C@H](Cc1ccccc1)NC(=O)O[C@@H]1C[C@@H]2[C@@H](O)CO[C@@H]2C1)S(=O)(=O)c1ccc(N)cc1 [Inhibitor 26, (3R,3aR,5R,6aR)-3-Hydroxyhexahydro-2H-cyclopenta[b]furan-5-yl [(2S,3R)-4-(4-Amino-N-iso-butylphenylsulfonamido)-3-hydroxy-1-phenylbutan-2-yl]-carbamate]
Ki (HIV-1 protease; Table 1, read-out: Ki): 0.006 nM
IC50 (HIV-1LAI; [3]): 36 nM

CC(C)CN(C[C@@H](O)[C@H](Cc1ccccc1)NC(=O)O[C@@H]1C[C@@H]2[C@H](O)CO[C@@H]2C1)S(=O)(=O)c1ccc(N)cc1 [Inhibitor 123, (3S,3aR,5R,6aR)-3-Hydroxyhexahydro-2H-cyclopenta[b]furan-5-yl [(2S,3R)-4-(4-Amino-N-isobutylphenylsulfonamido)-3-hydroxy-1-phenylbutan-2-yl]carbamate]
loss of antiviral activity (higher IC50) compared to 22 (HIV-1LAI): 3 fold

CC(C)(C)NC(=O)[C@@H]1C[C@@H]2CCCC[C@@H]2CN1C[C@@H](O)[C@H](Cc1ccccc1)NC(=O)[C@H](CC(N)=O)NC(=O)c1ccc2ccccc2n1 [SQV, saquinavir, reference compound]
IC50 (HIV-1LAI; [3]): 15 nM

CC(C)CN(C[C@@H](O)[C@H](Cc1ccccc1)NC(=O)O[C@@H]1C[C@@H]2[C@H](O)CO[C@@H]2C1)S(=O)(=O)c1ccc(N)cc1 [drawing 10]
Ki (HIV-1 protease; Table 1, read-out: Ki): 0.079 nM
IC50 (HIV-1LAI; [3]): 25 nM

COC(=O)N[C@@H]1CO[C@@H]2C[C@H](OC(=O)N[C@@H](Cc3ccccc3)[C@H](O)CN(CC(C)C)S(=O)(=O)c3ccc(OC)cc3)C[C@H]12 [drawing 23]
IC50 (HIV-1LAI; [2]): 1.6 nM

COC(=O)N[C@H]1CO[C@@H]2C[C@H](OC(=O)N[C@@H](Cc3ccccc3)[C@H](O)CN(CC(C)C)S(=O)(=O)c3ccc(OC)cc3)C[C@H]12 [drawing 24]
Ki (HIV-1 protease; Table 2, read-out: Ki): 0.004 nM
IC50 (HIV-1LAI; [2]): 4.6 nM

((3R,3aS,5R,6aR)-3-Methoxyhexahydro-2H-cyclopenta[b]furan-5-yl [(2S,3R)-3-Hydroxy-4-(N-iso-butyl-4-methoxyphenylsulfonamido)-1-phenylbutan-2-yl]-carbamate [Inhibitor 19d]
Ki (HIV-1 protease; [5]): 0.006 nM
IC50 (HIV-1LAI; Table 1, MT-2 cells, 100 TCID50s of HIV-1LAI, MTT assay, means of at least two experiments, read-out: IC50): 3.4 nM
